Reference: ChEMBL document CHEMBL4825763, “Discovery of potent and selective Bcl-2 inhibitors with acyl sulfonamide skeleton” (Bioorg Med Chem, 2021)
pIC50: −log10 of the molar value. The source made the active and inactive calls. The calls are words filed in the database; no cut-off is given here.

Columns and labels:
[1] = biological target: Apoptosis regulator Bcl-2 (Homo sapiens, UniProt P10415); experiment: Displacement of Bak derived peptide from Bcl-2 (unknown origin) measured after 15 mins by microplate reader assay
Chain of Apoptosis regulator Bcl-2 (P10415 whole entry): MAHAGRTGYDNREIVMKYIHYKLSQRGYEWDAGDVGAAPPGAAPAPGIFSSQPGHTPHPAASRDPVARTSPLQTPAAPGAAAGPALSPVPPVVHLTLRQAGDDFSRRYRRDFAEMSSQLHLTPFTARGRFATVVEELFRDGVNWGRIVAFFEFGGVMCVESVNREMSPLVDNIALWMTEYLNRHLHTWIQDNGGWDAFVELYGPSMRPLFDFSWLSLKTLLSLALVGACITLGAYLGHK

Bcl-2-like protein 1 = Bcl-2-like protein 1 (Homo sapiens, UniProt Q07817); experiment: Displacement of Bak derived peptide from Bcl-xL (unknown origin) measured after 15 mins by microplate reader assay
Chain of Bcl-2-like protein 1 (Q07817 whole entry): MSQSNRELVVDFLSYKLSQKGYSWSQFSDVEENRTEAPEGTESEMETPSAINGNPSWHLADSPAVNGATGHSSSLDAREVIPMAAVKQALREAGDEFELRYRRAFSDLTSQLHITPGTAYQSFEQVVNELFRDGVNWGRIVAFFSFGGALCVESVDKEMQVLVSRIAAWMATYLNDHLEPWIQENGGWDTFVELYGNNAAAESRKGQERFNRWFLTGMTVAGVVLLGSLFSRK

RS4-11 = experiment: Antiproliferative activity against human RS4-11 cells assessed as inhibition of cell proliferation measured after 72 hrs by CCK8 assay; assay type: functional, cell-based; conditions: RS4-11, 72 h
[2] = biological target: T1, Caspase-3 (Canis lupus familiaris) (UniProt Q8MKI5); experiment: Induction of caspase 3 activity in dog platelets assessed as cleavage of Ac-DEVD-Pna at 0.5 to 2.5 uM using Ac-DEVD-pNA as substrate incubated for 90 mins; assay type: tissue-based; conditions: Platelet, dose 0.5-2.5 µM
T1 sequence (whole entry): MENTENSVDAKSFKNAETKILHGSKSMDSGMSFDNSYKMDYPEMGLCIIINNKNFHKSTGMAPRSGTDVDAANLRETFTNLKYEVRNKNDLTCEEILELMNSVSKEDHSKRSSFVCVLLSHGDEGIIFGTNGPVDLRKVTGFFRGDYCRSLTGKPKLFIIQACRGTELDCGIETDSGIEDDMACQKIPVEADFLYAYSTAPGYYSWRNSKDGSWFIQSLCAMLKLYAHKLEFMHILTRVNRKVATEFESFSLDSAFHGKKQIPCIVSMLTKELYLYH

[3] = Toxicity in C57BL/6 mouse plasma assessed as effect on platelet count at 300 mg/kg, ig for 4 hrs; assay type: organism-based; conditions: in vivo, po
[4] = Metabolic stability in mouse liver microsomes assessed as parent compound remaining incubated for 60 mins in presence of NADPH; assay type: ADME, Microsome; conditions: read-out: Stabilty
[5] = Metabolic stability in rat liver microsomes assessed as parent compound remaining incubated for 60 mins in presence of NADPH; assay type: ADME, Microsome; conditions: read-out: Stabilty
[6] = Metabolic stability in human liver microsomes assessed as parent compound remaining incubated for 60 mins in presence of NADPH; assay type: ADME, Microsome; conditions: read-out: Stabilty
[7] = Tmax in rat at 5 mg/kg, ig administered as single dose measured upto 24 hrs by LC-MS/MS analysis; assay type: ADME, organism-based; conditions: in vivo, po
[8] = Cmax in rat at 5 mg/kg, ig administered as single dose measured upto 24 hrs by LC-MS/MS analysis; assay type: ADME, organism-based; parameters: route intragastric, dose 5 mg/kg, time <=24; conditions: in vivo, po
[9] = AUC (0 to t) in rat at 5 mg/kg, ig administered as single dose measured upto 24 hrs by LC-MS/MS analysis; assay type: ADME, organism-based; parameters: route intragastric, dose 5 mg/kg, time <=24; conditions: in vivo, po
[10] = AUC (0 to infinity) in rat at 5 mg/kg, ig administered as single dose measured upto 24 hrs by LC-MS/MS analysis; assay type: ADME, organism-based; parameters: route intragastric, dose 5 mg/kg, time <=24; conditions: in vivo, po
[11] = Half life in rat at 5 mg/kg, ig administered as single dose measured upto 24 hrs by LC-MS/MS analysis; assay type: ADME, organism-based; conditions: in vivo, po
[12] = MRT (0 to t) in rat at 5 mg/kg, ig administered as single dose measured upto 24 hrs by LC-MS/MS analysis; assay type: ADME, organism-based; conditions: in vivo, po
[13] = Tmax in mouse at 10 mg/kg, ig administered as single dose measured upto 24 hrs by LC-MS/MS analysis; assay type: ADME, organism-based; conditions: in vivo, po
[14] = Cmax in mouse at 10 mg/kg, ig administered as single dose v measured upto 24 hrs by LC-MS/MS analysis; assay type: ADME, organism-based; parameters: route intragastric, dose 10 mg/kg, time <=24; conditions: in vivo, po
[15] = AUC (0 to t) in mouse at 10 mg/kg, ig administered as single dose measured upto 24 hrs by LC-MS/MS analysis; assay type: ADME, organism-based; parameters: route intragastric, dose 10 mg/kg, time <=24; conditions: in vivo, po
[16] = AUC (0 to infinity) in mouse at 10 mg/kg, ig administered as single dose measured upto 24 hrs by LC-MS/MS analysis; assay type: ADME, organism-based; parameters: route intragastric, dose 10 mg/kg, time <=24; conditions: in vivo, po
[17] = Half life in mouse at 10 mg/kg, ig administered as single dose measured upto 24 hrs by LC-MS/MS analysis; assay type: ADME, organism-based; conditions: in vivo, po
[18] = MRT (0 to t) in mouse at 10 mg/kg, ig administered as single dose measured upto 24 hrs by LC-MS/MS analysis; assay type: ADME, organism-based; conditions: in vivo, po

SMILES	pIC50 [1]	pIC50 (Bcl-2-like protein 1)	pIC50 (RS4-11)	also measured
CC1(C)CCC(CN2CCN(c3ccc(C(=O)NS(=O)(=O)c4ccc(NC5CCOC5)c([N+](=O)[O-])c4)c(Oc4cnc5[nH]ccc5c4)c3)CC2)=C(c2ccc(C(F)(F)F)cc2)C1 (stereo unspecified)	8.72	6.08	7.49	–
CC1(C)CCC(CN2CCN(c3ccc(C(=O)NS(=O)(=O)c4ccc(NCC5CCOCC5)c([N+](=O)[O-])c4)c(Oc4cnc5[nH]ccc5c4)c3)CC2)=C(c2ccc(Cl)cc2)C1 [VENETOCLAX]	–	–	8.74	Activity [2]: inactive; Activity [3]: Toxic; remaining at 1 h [4]: 58.8%; remaining at 1 h [5]: 46.3%; remaining at 1 h [6]: 54.9%; Tmax [7]: 2.67 h; Cmax [8]: 355 ng/mL; AUC(0-t) at 24 h [9]: 1380 ng·h/mL; AUC(0-inf) [10]: 1470 ng·h/mL; half-life [11]: 1.9 h; MRT last at 24 h [12]: 3.55 h; Tmax [13]: 1.67 h; Cmax [14]: 1310 ng/mL; AUC(0-t) at 24 h [15]: 7760 ng·h/mL; AUC(0-inf) [16]: 8100 ng·h/mL; half-life [17]: 2.78 h; MRT last at 24 h [18]: 4.71 h
COc1ccc(C2=C(CN3CCN(c4ccc(C(=O)NS(=O)(=O)c5ccc(NCC6CCOCC6)c([N+](=O)[O-])c5)c(Oc5cnc6[nH]ccc6c5)c4)CC3)CCC(C)(C)C2)cc1	8.42	6.09	7.92	–
CC1(C)CCC(CN2CCN(c3ccc(C(=O)NS(=O)(=O)c4ccc(NCC5CCOCC5)c([N+](=O)[O-])c4)c(Oc4cnc5[nH]ccc5c4)c3)CC2)=C(c2cccc(C(F)(F)F)c2)C1	–	–	7.20	–
CC1(C)CCC(CN2CCN(c3ccc(C(=O)NS(=O)(=O)c4ccc(NCC5CCOCC5)c([N+](=O)[O-])c4)c(Oc4cnc5[nH]ccc5c4)c3)CC2)=C(c2ccc(C(F)(F)F)cc2)C1	8.82	6.10	8.21	–
CC1(C)CCC(CN2CCN(c3ccc(C(=O)NS(=O)(=O)c4ccc(NCC5CCOCC5)c([N+](=O)[O-])c4)c(Oc4cnc5[nH]ccc5c4)c3)CC2)=C(c2ccc(Cl)cc2C(F)(F)F)C1	–	< 5.70	7.13	–
CC(C)C(=O)N1CCC(CNc2ccc(S(=O)(=O)NC(=O)c3ccc(N4CCN(CC5=C(c6ccc(C(F)(F)F)cc6)CC(C)(C)CC5)CC4)cc3Oc3cnc4[nH]ccc4c3)cc2[N+](=O)[O-])CC1	8.62	6.34	8.28	–
CN1CCC(CNc2ccc(S(=O)(=O)NC(=O)c3ccc(N4CCN(CC5=C(c6ccc(C(F)(F)F)cc6)CC(C)(C)CC5)CC4)cc3Oc3cnc4[nH]ccc4c3)cc2[N+](=O)[O-])C1 (stereo unspecified)	8.62	7.45	8.08	–
CC1(C)CCC(CN2CCN(c3ccc(C(=O)NS(=O)(=O)c4ccc(OCC5CCSCC5)c([N+](=O)[O-])c4)c(Oc4cnc5[nH]ccc5c4)c3)CC2)=C(c2ccc(C(F)(F)F)cc2)C1	8.78	6.30	7.82	–
CC1(C)CCC(CN2CCN(c3ccc(C(=O)NS(=O)(=O)c4ccc(OC5CCOCC5)c([N+](=O)[O-])c4)c(Oc4cnc5[nH]ccc5c4)c3)CC2)=C(c2ccc(C(F)(F)F)cc2)C1	8.08	< 5.70	6.43	–
CC(Oc1ccc(S(=O)(=O)NC(=O)c2ccc(N3CCN(CC4=C(c5ccc(C(F)(F)F)cc5)CC(C)(C)CC4)CC3)cc2Oc2cnc3[nH]ccc3c2)cc1[N+](=O)[O-])C1CCOCC1 (stereo unspecified)	8.04	6.21	6.57	–
CC1(C)CCC(CN2CCN(c3ccc(C(=O)NS(=O)(=O)c4ccc(NCC5CCOCC5)c([N+](=O)[O-])c4)c(Oc4cnc5[nH]ccc5c4)c3)CC2)=C(c2ccccc2C(F)(F)F)C1	8.77	6.70	7.74	–
CC1(C)CCC(CN2CCN(c3ccc(C(=O)NS(=O)(=O)c4ccc(NCC5CCOC5)c([N+](=O)[O-])c4)c(Oc4cnc5[nH]ccc5c4)c3)CC2)=C(c2ccc(C(F)(F)F)cc2)C1 (stereo unspecified)	8.33	6.05	7.62	–
CC1(C)CCC(CN2CCN(c3ccc(C(=O)NS(=O)(=O)c4ccc(OCC5CCOCC5)c([N+](=O)[O-])c4)c(Oc4cnc5[nH]ccc5c4)c3)CC2)=C(c2ccc(C(F)(F)F)cc2)C1	9.00	6.06	8.23	Activity [2]: inactive; Activity [3]: Non-Toxic; remaining at 1 h [4]: 76.6%; remaining at 1 h [5]: 74.8%; remaining at 1 h [6]: 75.8%; Tmax [7]: 2.67 h; Cmax [8]: 438 ng/mL; AUC(0-t) at 24 h [9]: 2620 ng·h/mL; AUC(0-inf) [10]: 3130 ng·h/mL; half-life [11]: 4.5 h; MRT last at 24 h [12]: 5.18 h; Tmax [13]: 4 h; Cmax [14]: 920 ng/mL; AUC(0-t) at 24 h [15]: 6960 ng·h/mL; AUC(0-inf) [16]: 7000 ng·h/mL; half-life [17]: 2.99 h; MRT last at 24 h [18]: 5.7 h
CN1CCC(COc2ccc(S(=O)(=O)NC(=O)c3ccc(N4CCN(CC5=C(c6ccc(C(F)(F)F)cc6)CC(C)(C)CC5)CC4)cc3Oc3cnc4[nH]ccc4c3)cc2[N+](=O)[O-])C1 (stereo unspecified)	9.12	7.77	8.00	–
CC1(C)CCC(CN2CCN(c3ccc(C(=O)NS(=O)(=O)c4ccc(OCC5CCCOC5)c([N+](=O)[O-])c4)c(Oc4cnc5[nH]ccc5c4)c3)CC2)=C(c2ccc(C(F)(F)F)cc2)C1 (stereo unspecified)	8.52	6.12	7.92	–
CC1(C)CCC(CN2CCN(c3ccc(C(=O)NS(=O)(=O)c4ccc(NCC5CCOCC5)c([N+](=O)[O-])c4)c(Oc4cnc5[nH]ccc5c4)c3)CC2)=C(c2ccc(C(F)(F)F)c(Cl)c2)C1	–	< 5.70	7.09	–
CC1(C)CCC(CN2CCN(c3ccc(C(=O)NS(=O)(=O)c4ccc(OCC5CCOC5)c([N+](=O)[O-])c4)c(Oc4cnc5[nH]ccc5c4)c3)CC2)=C(c2ccc(C(F)(F)F)cc2)C1 (stereo unspecified)	8.36	5.77	7.33	–
CCN(CC)CCCNc1ccc(S(=O)(=O)NC(=O)c2ccc(N3CCN(CC4=C(c5ccc(C(F)(F)F)cc5)CC(C)(C)CC4)CC3)cc2Oc2cnc3[nH]ccc3c2)cc1[N+](=O)[O-]	9.52	7.60	8.52	–
CN(C)CCCNc1ccc(S(=O)(=O)NC(=O)c2ccc(N3CCN(CC4=C(c5ccc(C(F)(F)F)cc5)CC(C)(C)CC4)CC3)cc2Oc2cnc3[nH]ccc3c2)cc1[N+](=O)[O-]	9.05	7.54	8.41	–
CCN1CCC(COc2ccc(S(=O)(=O)NC(=O)c3ccc(N4CCN(CC5=C(c6ccc(C(F)(F)F)cc6)CC(C)(C)CC5)CC4)cc3Oc3cnc4[nH]ccc4c3)cc2[N+](=O)[O-])CC1	9.30	7.46	8.31	–
